Results from article PMC7354631 (Toxins, 2020).
Read-outs that look alike come from different tables or passages of the source. Marks after values point to notes of the source that are not given here.

Columns and labels:
[1] = test system: Sudlow’s site II of human serum albumin (HSA); settings: cited from earlier work
[2] = molecular target: T1, human serum albumin (HSA) (Homo sapiens, UniProt P02768); settings: cited from earlier work
[3] = molecular target: T1, human serum albumin (HSA); assay: biochemical; format: binding
[4] = molecular target: T1, human serum albumin (HSA); format: binding
[5] = molecular target: Sudlow’s site I of human serum albumin (HSA) (Homo sapiens, UniProt P02768); format: binding; settings: for warfarin concentration in the filtrate (displacement from site I): pH 7.4
[6] = molecular target: T1, human serum albumin (HSA); assay: biochemical; format: binding; remark: listed apart in the source
[7] = molecular target: T1, human serum albumin (HSA); format: binding; remark: listed apart in the source
bovine serum albumin = settings: cited from earlier work
[8] = Ka (±SEM) (Hyperquad, Figure 3)
[9] = association constant of ochratoxin–HSA complex (approximate, summary)

T1 sequence (P02768 25-609): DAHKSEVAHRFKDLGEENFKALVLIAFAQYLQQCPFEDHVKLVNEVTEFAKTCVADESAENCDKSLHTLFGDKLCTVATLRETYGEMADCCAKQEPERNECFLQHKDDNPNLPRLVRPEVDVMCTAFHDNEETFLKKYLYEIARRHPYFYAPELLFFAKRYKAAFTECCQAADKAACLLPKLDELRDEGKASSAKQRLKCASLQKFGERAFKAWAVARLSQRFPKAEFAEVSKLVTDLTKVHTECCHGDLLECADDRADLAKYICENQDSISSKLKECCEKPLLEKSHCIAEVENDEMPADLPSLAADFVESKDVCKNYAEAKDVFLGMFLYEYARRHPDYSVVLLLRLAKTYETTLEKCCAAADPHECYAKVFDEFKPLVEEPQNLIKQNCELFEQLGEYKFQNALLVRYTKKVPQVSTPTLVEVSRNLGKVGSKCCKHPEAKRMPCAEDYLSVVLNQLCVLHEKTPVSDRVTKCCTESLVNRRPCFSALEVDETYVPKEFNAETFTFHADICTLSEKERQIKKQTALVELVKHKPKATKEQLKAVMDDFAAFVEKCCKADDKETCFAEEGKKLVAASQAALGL
Sudlow’s site I of human serum albumin (HSA), sequence (P02768 25-609): as above

## O=c1cc(-c2ccccc2)oc2c(O)c(O)ccc12 [7,8-dihydroxyflavone]
[1]
  displacement of naproxen from HSA: statistically significant displacement

## CC1=C[C@H]2O[C@@H]3[C@H](O)C[C@](C)([C@@]2(CO)[C@H](O)C1=O)[C@]31CO1 [DON, Deoxynivalenol]
[2]
  association constant of the complex with HSA: ~46000 L/mol
  quenching effect on HSA: strong quenching effect
[3]
  effect on the fluorescence emission of HSA: did not modify
[4]; pH 7.4
  spectral position of the n–π* CD band in protein-free buffer vs. high molar excess of HSA: practically the same
[5]
  warfarin concentration in the filtrate (displacement from site I): did not alter
HepG2 cells
  effect of 10% FBS on the mycotoxin-induced viability loss / toxic effect: did not affect
  effect of 40 g/L HSA on the toxic effect of the mycotoxin: did not affect

## C[C@@H]1Cc2ccc(C(=O)N[C@@H](Cc3ccccc3)C(=O)O)c(O)c2C(=O)O1 [OTB, ochratoxin B]
[6]
  HSA concentration enough to achieve complete albumin binding: 5 to 7 µM
  emission signal of the ochratoxin with elevation of HSA concentration: significantly increased
[6]; [8]
  Kd: 725 nM
[6]; [9]
  Kd: ~1000 nM
[3]
  effect on the emission signal of HSA at 340 nm: decreased
[3]; pH 7.4
  KSV (±SEM) (Stern–Volmer Plot, Figure 2): 0.57 ± 0.05 ×10^6 L/mol
[7]
  fluorescence anisotropy in the presence of HSA: strongly increased
[5]
  location of the high-affinity binding site on HSA: subdomain IIA
  warfarin concentration in the filtrate (displacement from site I): significantly increased
HepG2 cells
  effect of 10% FBS on the mycotoxin-induced viability loss / toxic effect: significantly reduced
  effect of the mycotoxin on cellular ATP levels in the presence of 40 g/L HSA: did not affect
  relative cytotoxicity: considerably lower toxicity than OTC

## CCOC(=O)[C@H](Cc1ccccc1)NC(=O)c1cc(Cl)c2c(c1O)C(=O)O[C@H](C)C2 [OTC, ochratoxin C]
[6]
  HSA concentration enough to achieve complete albumin binding: 2 to 3 µM
  emission signal of the ochratoxin with elevation of HSA concentration: significantly increased
[6]; [8]
  Kd: 62.4 nM
[6]; [9]
  Kd: ~100 nM
[3]
  effect on the emission signal of HSA at 340 nm: decreased
[3]; pH 7.4
  KSV (±SEM) (Stern–Volmer Plot, Figure 2): 0.46 ± 0.06 ×10^6 L/mol
[7]
  fluorescence anisotropy in the presence of HSA: strongly increased
[5]
  location of the high-affinity binding site on HSA: subdomain IIA
  warfarin concentration in the filtrate (displacement from site I): significantly increased
HepG2 cells
  effect of 10% FBS on the mycotoxin-induced viability loss / toxic effect: abolished
  effect of the mycotoxin on cellular ATP levels in the presence of 40 g/L HSA: did not affect

## O=C1C=C2C(=CCOC2O)O1 (centres unmarked) [PAT, Patulin]
[2]
  KSV of the complex with HSA: 14000 L/mol
Bovine serum albumin
  interaction with bovine serum albumin: weak interaction
[3]
  Kd: 72500 nM
  effect on the fluorescence emission of HSA: slightly decreased
[3]; pH 7.4
  KSV (Stern–Volmer quenching constant): 8.23 × 10^3 (±1.12 × 10^3) L/mol
[4]
  induced CD features on HSA binding: no induced CD features were observed
[4]; pH 7.4
  UV spectral changes in the presence of HSA: some UV spectral changes could be noticed
[5]
  warfarin concentration in the filtrate (displacement from site I): did not alter
HepG2 cells
  effect of 10% FBS on the mycotoxin-induced viability loss / toxic effect: did not affect
  effect of 40 g/L HSA on the toxic effect of the mycotoxin: did not affect

## CC(=O)OC[C@]12C[C@H](OC(=O)CC(C)C)C(C)=C[C@H]1O[C@@H]1[C@H](O)[C@@H](OC(C)=O)[C@@]2(C)[C@]12CO2 [T2, T-2 toxin]
[3]
  effect on the fluorescence emission of HSA: did not modify
[4]
  difference of far-UV CD curves of free HSA and HSA+toxin (secondary structure): no significant difference
  modification of the near-UV CD spectrum of HSA (245–340 nm): unambiguous and relevant spectral modifications could not be registered
[5]
  warfarin concentration in the filtrate (displacement from site I): did not alter
HepG2 cells
  effect of 10% FBS on the mycotoxin-induced viability loss / toxic effect: did not affect
  effect of 40 g/L HSA on the toxic effect of the mycotoxin: did not affect
  relative cytotoxicity: considerably higher compared to PAT or DON

## Cc1cc(O)cc2oc(=O)c3c(O)cc(O)cc3c12 [alternariol, reference compound]
[2]
  Ka of the complex with HSA: 400000 L/mol

## O=c1cc(-c2ccccc2)oc2cc(OS(=O)(=O)O)cc(O)c12 [chrysin-7-sulfate]
[1]
  displacement of naproxen from HSA: statistically significant displacement

## O=c1cc(-c2ccccc2)oc2cc(O)cc(O)c12 [chrysin]
[1]
  displacement of naproxen from HSA: statistically significant displacement

## CC1=C2C(=CO[C@H](C)[C@H]2C)C(O)=C(C(=O)O)C1=O [citrinin, reference compound]
[2]
  Ka of the complex with HSA: 200000 L/mol

## C[C@H]1CCCC(=O)CCC/C=C/c2cc(O)cc(O)c2C(=O)O1 [zearalenone, reference compound]
[2]
  Ka of the complex with HSA: 120000 L/mol
